Test results: paper PMC3332334 (Biochemistry, 2012)

Target: PA1221 (Pseudomonas aeruginosa, UniProt Q9I4B7)
Assay: […]-PPi exchange assay
Assay type: biochemical
Conditions: 2 mM ATP, 0.2 mM PPi, 1 mM MgCl2, pH 7.5, 37 °C

SMILES | 32P-PPi exchange assay (5 mM Ile) | 32P-PPi exchange assay (5 mM valine)
CC[C@H](C)[C@H](N)C(=O)O [I, Ile] | Ile, Leu, and Ala utilized as substrates at a lower rate | –
CC(C)[C@H](N)C(=O)O [V, valine] | – | Valine resulted in the highest activity
